Test results from patent US6878522B2, “Methods for the identification of compounds useful for the treatment of disease states mediated by prostaglandin D2” (priority 2000, dated 2005).

target: T1, human eosinophil [3H]-PGD2 binding site (Homo sapiens, UniProt Q9Y5Y4); assay: [3H]PGD2 binding in isolated human eosinophils; conditions: number in brackets not defined
T1 construct: endogenous in cells; host or cells: isolated human eosinophils
T1 sequence (Q9Y5Y4 1-395): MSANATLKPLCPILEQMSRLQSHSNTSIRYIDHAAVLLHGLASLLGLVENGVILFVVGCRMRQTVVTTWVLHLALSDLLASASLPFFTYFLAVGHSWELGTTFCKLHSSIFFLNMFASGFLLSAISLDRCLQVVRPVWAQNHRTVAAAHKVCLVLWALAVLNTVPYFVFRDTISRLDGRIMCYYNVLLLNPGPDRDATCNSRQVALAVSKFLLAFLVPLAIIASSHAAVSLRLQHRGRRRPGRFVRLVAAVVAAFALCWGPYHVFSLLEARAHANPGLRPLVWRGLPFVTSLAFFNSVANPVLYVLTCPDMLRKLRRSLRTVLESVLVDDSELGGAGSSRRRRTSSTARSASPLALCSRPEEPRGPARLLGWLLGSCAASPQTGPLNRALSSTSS
Source text: As is shown in FIG. 1B, the effects of the prostaglandins and analogs on human eosinophil [^3H]-PGD2 binding site and eosinophil functional responses have the same order of potency (i.e., PGD2>PGF2a>>BW245C).

IC50 | SMILES
> 100000 nM | O=C(O)CCCCCCC1C(=O)NC(=O)N1CCC(O)C1CCCCC1 (stereo not shown) [BW-245C]
3300 nM | CCCCC[C@H](O)/C=C/[C@H]1[C@H](O)CC(=O)[C@@H]1C/C=C\CCCC(=O)O [PGE2]
1500 nM | CCCCC[C@H](O)/C=C/[C@@H]1[C@@H](C/C=C\CCCC(=O)O)[C@@H](O)C[C@H]1O [PGF2α]

SMILES | IC50
CCCCC[C@H](O)/C=C/[C@H]1C(=O)C[C@H](O)[C@@H]1C/C=C\CCCC(=O)O [PGD2, prostaglandin D2] | 25 nM

tested on: isolated human eosinophils; assay: [Ca2+]i mobilization in isolated human eosinophils; type: cell-based; conditions: not given
Source text: Calcium mobilization can be detected and measured by flow cytometry, and by labeling with fluorescent dyes that are trapped intracellularly. […] The ratio of fluorescence produced by the calcium-bound dye to that produce by the unbound dye is used to estimate the intracellular calcium concentration. In one embodiment, for example, the following method can be used. Cells that express CRTH2 are collected, and resuspended in fresh media at ˜2×10^5/ml the day before performing the calcium flux assay. Cells are incubated at 37° C. for not longer than 20-30 minutes, and then spun down and resuspended in 50 ml fresh PTI buffer (Hank's Buffer, pH 7.2-7.4; 10 mM Hepes; 1.6 mM CaCl2) containing Indo-1 AM, pre-warmed to 37° C., at a concentration of 10 million per ml. Cells are excited, and fluorescence is measured using a fluorimeter (Photon Technology Corporation, International). After the readout has stabilized, the time axis is reset, and PGD2 is added at a specific time point (e.g., 20 seconds). After response, the following reagents are added to the cuvette, to release and chelate total calcium, in the following order: 20 μl of 18% Triton X-100, 20 μl of 3M Tris, pH 8.5, and 20 μl of 0.5 M EGTA, pH 8.5. The experiment is repeated in the presence and the absence of a test compound. […] Therefore, in the presence of an […] test compound, the EC50 would be expected to be higher than this value, whereas in the presence of an agonist test compound, the EC50 would be expected to decrease.

EC50 | SMILES
> 1000 nM | O=C(O)CCCCCCC1C(=O)NC(=O)N1CCC(O)C1CCCCC1 (stereo not shown) [BW-245C]
> 1000 nM | CCCCC[C@H](O)/C=C/[C@H]1[C@H](O)CC(=O)[C@@H]1C/C=C\CCCC(=O)O [PGE2]
> 1000 nM | CCCCC[C@H](O)/C=C/[C@@H]1[C@@H](C/C=C\CCCC(=O)O)[C@@H](O)C[C@H]1O [PGF2α]

SMILES | EC50
CCCCC[C@H](O)/C=C/[C@H]1C(=O)C[C@H](O)[C@@H]1C/C=C\CCCC(=O)O [PGD2, prostaglandin D2] | 30 nM

tested on: isolated human eosinophils; assay: Reactive oxygen species (ROS) release in isolated human eosinophils; type: cell-based; conditions: not given
Description: Another secondary assay is the reactive oxygen species release assay. One measure of PGD2-induced activation of CRTH2 cells, such as eosinophils, is the intracellular release of reactive oxygen species. This can be tested in a reactive oxygen species release assay, or ROS, using lucigenin-dependent chemiluminescence to measure reactive oxygen species release. In this method, freshly isolated eosinophils are prepared, by standard methods, and resuspended at concentration 2-4×10^6 cells/ml in (RPMI; 10 mM HEPES; 1× Pen/Strep; 0.5% FBS) at room temperature. Immediately prior to use, 1 ml of cell suspension is added to 9 ml of buffer, prewarmed to 37° C. for 15 minutes, and added 0.5 ml of 200 mM Lucigenin.
Test compounds (made as 10,000× DMSO stocks) are diluted in buffer with DMSO (1.5 ul of DMSO/2.5 ml Buffer) and 25 μl/well added to white 96-well culture plate and placed in a 37° C. incubator. Isolated cells (held at room temperature) are diluted with room temperature buffer to 2-4×10^6 cells/ml, and incubated in a water bath at 37° C. for 15 minutes. At 15 minutes, 0.5 ml 200 mM lucigenin (bis-N-Methylacridinium Nitrate; Sigma, St. Louis, Mo.) is added to 10 ml of the cell suspension, mixed, and 100 μl/well is added to the prewarmed microtiter plate. The plate is returned to 37° C. for 5 minutes, at which time 25 μl of stimulus is added) The plate is read in the luminometer for 8 cycles. The luminescence of test compounds can be tested in the presence of PGD2, relative to a control sample containing PGD2 alone. A compound that interferes with the ability of PGD2 to result in intracellular reactive oxygen species release in CRTH2 cells, is a candidate for a CRTH2 antagonist.

EC50 | SMILES
> 1000 nM | O=C(O)CCCCCCC1C(=O)NC(=O)N1CCC(O)C1CCCCC1 (stereo not shown) [BW-245C]
> 100 nM | CCCCC[C@H](O)/C=C/[C@H]1[C@H](O)CC(=O)[C@@H]1C/C=C\CCCC(=O)O [PGE2]
> 1000 nM | CCCCC[C@H](O)/C=C/[C@@H]1[C@@H](C/C=C\CCCC(=O)O)[C@@H](O)C[C@H]1O [PGF2α]

SMILES | EC50
CCCCC[C@H](O)/C=C/[C@H]1C(=O)C[C@H](O)[C@@H]1C/C=C\CCCC(=O)O [PGD2, prostaglandin D2] | 2 nM

tested on: isolated human eosinophils; assay: Chemotaxis of isolated human eosinophils; type: cell-based; conditions: not given
Description: In a specific example of this method, a competitive assay is performed to test compounds for their ability to interrupt the attraction of CRTH2 cells to PGD2. In this method, test compounds are diluted into the bottom wells of the Boyden chemotaxis chamber. A constant amount of PGD2 is also added to this dilution series, at a concentration known to have a chemotactic effect on CRTH2 cells. As a control, at least one aliquot contains only PGD2. Cells expressing CRTH2 are resuspended at 3-3.5×10^6 cells/ml in RPMI 1640 supplemented with 10 mM HEPES and 1 mg/ml bovine serum albumin (Sigma, St. Louis, Mo.), and placed into the upper wells of the chamber. The chambers are incubated for 90-120 minutes at 37° C. in a humidified CO2 incubator. After the incubation period, the number of migrating cells on the lower surface of the membrane filter is counted using light microscopy. The contribution of the test compound to the chemotactic activity of PGD2 is measured by comparing the chemotactic activity of the aliquots containing only PGD2 with the activity of aliquots containing test compound and PGD2. If addition of the test compound to the PGD2 solution results in a […] in the number of cells detected on the lower surface of the membrane relative to the number of cells detected using a solution containing only PGD2, then there is identified an antagonist of PGD2 induction of chemotactic activity of cells expressing CRTH2. In contrast, if the addition of the test compound to the PGD2 solution results in a […] in the number of cells detected on the lower surface of the membrane (relative to the number of cells detected using a solution containing only PGD2), then an […] of PGD2 induction of chemotactic activity of cells expressing CRTH2 is identified.
The chemotactic response of human T lymphocytes to PGD2, murine MDC and murine mSDF was also assayed. Chemotaxis was determined using a 48-well Boyden chamber (Neuroprobe, Cabin John, Md.), and 3.0 μm polycarbonate filters. Cells were resuspended (3-3.5×10^6 cells/ml) in RPMI 1640 supplemented with 10 mM HEPES and 1 mg/ml bovine serum albumin (Sigma, St. Louis, Mo.), and placed into the upper wells of the chamber. The compound to be tested was placed in the lower wells. The chambers were incubated for 90-120 minutes at 37° C. in a humidified CO2 incubator. At the end of the incubation period, the number of migrating cells on the filter (expressed per high power field) were enumerated microscopically. […] In FIG. 4, the chemotactic response of human basophils to PGD2 and C5a is shown.

EC50 | SMILES
> 1000 nM | O=C(O)CCCCCCC1C(=O)NC(=O)N1CCC(O)C1CCCCC1 (stereo not shown) [BW-245C]
> 100 nM | CCCCC[C@H](O)/C=C/[C@H]1[C@H](O)CC(=O)[C@@H]1C/C=C\CCCC(=O)O [PGE2]
> 100 nM | CCCCC[C@H](O)/C=C/[C@@H]1[C@@H](C/C=C\CCCC(=O)O)[C@@H](O)C[C@H]1O [PGF2α]

SMILES | EC50
CCCCC[C@H](O)/C=C/[C@H]1C(=O)C[C@H](O)[C@@H]1C/C=C\CCCC(=O)O [PGD2, prostaglandin D2] | 3 nM
